According to patent US9079907B2, “Fused heterocyclic compound and use thereof” (TAKEDA PHARMACEUTICAL COMPANY LIMITED, priority 2006, dated 2015):
Counter-ions that a name gives are not always drawn.

These molecules were tested against serotonin 5-HT2C receptor (isoform type VSV, stably expressing CHO cell) (Homo sapiens, UniProt P28335, I156V/I160V/N158S) (assay: cell-based). Settings: 1 μM.
Sequence of serotonin 5-HT2C receptor (isoform type VSV, stably expressing CHO cell) (P28335 33-458 I156V/N158S/I160V limits assumed): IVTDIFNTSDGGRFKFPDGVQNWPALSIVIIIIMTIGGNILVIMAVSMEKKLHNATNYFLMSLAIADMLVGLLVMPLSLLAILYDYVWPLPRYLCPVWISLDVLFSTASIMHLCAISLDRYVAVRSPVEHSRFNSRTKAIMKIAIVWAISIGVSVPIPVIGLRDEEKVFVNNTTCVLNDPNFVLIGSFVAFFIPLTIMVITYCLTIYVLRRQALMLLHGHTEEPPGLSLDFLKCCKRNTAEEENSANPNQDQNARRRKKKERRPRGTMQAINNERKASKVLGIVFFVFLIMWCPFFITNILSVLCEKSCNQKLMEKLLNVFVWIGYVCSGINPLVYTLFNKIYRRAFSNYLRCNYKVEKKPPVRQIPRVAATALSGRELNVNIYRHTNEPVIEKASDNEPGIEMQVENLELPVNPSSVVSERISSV
With `c1cc2c(nc1N1CCOCC1)OCCNC2` [Example 41, 8-morpholin-4-yl-2,3,4,5-tetrahydropyrido[3,2-f][1,4]oxazepine] the “ratio to maximum response by 5-HT (1 μM)” value was 83.0%.
For `Br.CC1CCC(C)N1c1ccc2c(n1)OCCNC2` (centres unmarked) [Example 156, 8-(2,5-dimethylpyrrolidin-1-yl)-2,3,4,5-tetrahydropyrido[3,2-f][1,4]oxazepine monohydrobromide], the “ratio to maximum response by 5-HT (1 μM)” value was 93.4%.
`c1cc2c(nc1C1CCCC1)OCCNC2` [Example 213, 8-cyclopentyl-2,3,4,5-tetrahydropyrido[3,2-f][1,4]oxazepine] was tested, and the “ratio to maximum response by 5-HT (1 μM)” value was 96.6%.

Same assay, conditions: 1 μM; dihydrochloride
With `CCC(C)N(C)c1ccc2c(n1)OCCNC2` (centres unmarked) [Example 173, N-(sec-butyl)-N-methyl-2,3,4,5-tetrahydropyrido[3,2-f][1,4]oxazepin-8-amine dihydrochloride] the “ratio to maximum response by 5-HT (1 μM)” value was 95.1%.

Same assay, conditions: 1 μM; monohydrobromide
For `c1cc2c(nc1N1CCOCC1)OCCNC2` [Example 148, 8-morpholin-4-yl-2,3,4,5-tetrahydropyrido[3,2-f][1,4]oxazepine monohydrobromide], the “ratio to maximum response by 5-HT (1 μM)” value was 93.5%.
For `CC(C)N(C)c1ccc2c(n1)OCCNC2` [Example 178, N-isopropyl-N-methyl-2,3,4,5-tetrahydropyrido[3,2-f][1,4]oxazepin-8-amine monohydrobromide], the “ratio to maximum response by 5-HT (1 μM)” value was 94.6%.

Same assay, conditions: 1 μM; monohydrochloride
`CCC(C)N(C)c1ccc2c(n1)OCCNC2` (centres unmarked) [Example 172, N-(sec-butyl)-N-methyl-2,3,4,5-tetrahydropyrido[3,2-f][1,4]oxazepin-8-amine monohydrochloride] was tested, and the “ratio to maximum response by 5-HT (1 μM)” value was 95.3%.

Same assay, conditions: CHO, read-out: ratio to maximum response by 5-HT; read-out: ratio to maximum response by 5-HT (1 μM)
`CC(C)(C)OC(=O)N1CCN(c2ccc3c(n2)OCCNC3)CC1` [Example 30, tert-butyl 4-(2,3,4,5-tetrahydropyrido[3,2-f][1,4]oxazepin-8-yl)piperazine-1-carboxylate] was tested, and the Emax was 99.4%.
`c1cc2c(nc1N1CCCCC1)OCCNC2` [Example 40, 8-piperidin-1-yl-2,3,4,5-tetrahydropyrido[3,2-f][1,4]oxazepine] was tested, and the Emax was 80.8%.
Molecule `c1cc2c(nc1N1CCCC1)OCCNC2` [Example 43, 8-pyrrolidin-1-yl-2,3,4,5-tetrahydropyrido[3,2-f][1,4]oxazepine bis(trifluoroacetate)] has an Emax of 97%.
With `CCN(CC)c1ccc2c(n1)OCCNC2` [Example 44, N,N-diethyl-2,3,4,5-tetrahydropyrido[3,2-f][1,4]oxazepin-8-amine bis(trifluoroacetate)] the Emax was 95.1%.
`c1cc2c(nc1N1CCCCCC1)OCCNC2` [Example 46, 8-azepan-1-yl-2,3,4,5-tetrahydropyrido[3,2-f][1,4]oxazepine bis(trifluoroacetate)] gave an Emax of 100%.
For `CC1CCCCN1c1ccc2c(n1)OCCNC2` (centres unmarked) [Example 49, 8-(2-methylpiperidin-1-yl)-2,3,4,5-tetrahydropyrido[3,2-f][1,4]oxazepine bis(trifluoroacetate)], the Emax was 89.5%.
With `c1ccc(CCN2CCN(c3ccc4c(n3)OCCNC4)CC2)cc1` [Example 58, 8-[4-(2-phenylethyl)piperazin-1-yl]-2,3,4,5-tetrahydropyrido[3,2-f][1,4]oxazepine tris(trifluoroacetate)] the Emax was 87.1%.
`c1ccc(CCCCN2CCN(c3ccc4c(n3)OCCNC4)CC2)cc1` [Example 67, 8-[4-(4-phenylbutyl)piperazin-1-yl]-2,3,4,5-tetrahydropyrido[3,2-f][1,4]oxazepine tris(trifluoroacetate)] gave an Emax of 124%.
`Clc1ccc(-c2ccc3c(n2)OCCNC3)cc1` [Example 79, 8-(4-chlorophenyl)-2,3,4,5-tetrahydropyrido[3,2-f][1,4]oxazepine] showed an Emax of 91.1%.
`Fc1ccc(-c2ccc3c(n2)OCCNC3)cc1` [Example 81, 8-(4-fluorophenyl)-2,3,4,5-tetrahydropyrido[3,2-f][1,4]oxazepine bis(trifluoroacetate)] showed an Emax of 92.1%.
`CSc1ccc(-c2ccc3c(n2)OCCNC3)cc1` [Example 96, 8-[4-(methylthio)phenyl]-2,3,4,5-tetrahydropyrido[3,2-f][1,4]oxazepine bis(trifluoroacetate)] was tested, and the Emax was 90.3%.
Work on `COC(=O)c1ccc(-c2ccc3c(n2)OCCNC3)cc1` [Example 102, methyl 4-(2,3,4,5-tetrahydropyrido[3,2-f][1,4]oxazepin-8-yl)benzoate bis(trifluoroacetate)] yielded an Emax of 91.3%.
For `FC(F)(F)Oc1ccc(-c2ccc3c(n2)OCCNC3)cc1` [Example 104, 8-[4-(trifluoromethoxy)phenyl]-2,3,4,5-tetrahydropyrido[3,2-f][1,4]oxazepine bis(trifluoroacetate)], the Emax was 94.6%.
In the case of `c1cc(-c2ccc3c(n2)OCCNC3)co1` [Example 112, 8-(3-furyl)-2,3,4,5-tetrahydropyrido[3,2-f][1,4]oxazepine bis(trifluoroacetate)], the Emax is reported as 93%.
`CC(C)(C)OC(=O)N1CCN(c2nc3c(cc2F)CNCCO3)CC1` [Example 122, tert-butyl 4-(7-fluoro-2,3,4,5-tetrahydropyrido[3,2-f][1,4]oxazepin-8-yl)piperazine-1-carboxylate] was tested, and the Emax was 110%.
`CC1CNCc2ccc(N3CCN(C(=O)OC(C)(C)C)CC3)nc2O1` (centres unmarked) [Example 126, tert-butyl 4-(2-methyl-2,3,4,5-tetrahydropyrido[3,2-f][1,4]oxazepin-8-yl)piperazine-1-carboxylate] was tested, and the Emax was 109%.
`CC1CNCc2ccc(N3CCOCC3)nc2O1` (centres unmarked) [Example 128, 2-methyl-8-morpholin-4-yl-2,3,4,5-tetrahydropyrido[3,2-f][1,4]oxazepine] showed an Emax of 107%.
Work on `CC1CNCc2ccc(N3CCCCC3)nc2O1` (centres unmarked) [Example 129, 2-methyl-8-piperidin-1-yl-2,3,4,5-tetrahydropyrido[3,2-f][1,4]oxazepine] yielded an Emax of 111%.
Molecule `C[C@@H]1CNCc2ccc(N3CCOCC3)nc2O1` [Example 130, (+)-2-methyl-8-morpholin-4-yl-2,3,4,5-tetrahydropyrido[3,2-f][1,4]oxazepine] has an Emax of 105%.
`C[C@H]1CNCc2ccc(N3CCOCC3)nc2O1` [Example 131, (−)-2-methyl-8-morpholin-4-yl-2,3,4,5-tetrahydropyrido[3,2-f][1,4]oxazepine] gave an Emax of 94.2%.
`c1cc2c(nc1N1CCOCC1)OCCNC2` [Example 147, 8-morpholin-4-yl-2,3,4,5-tetrahydropyrido[3,2-f][1,4]oxazepine monohydrochloride] showed an Emax of 93.9%.
`CC1CCC(C)N1c1ccc2c(n1)OCCNC2` (centres unmarked) [Example 155, 8-(2,5-dimethylpyrrolidin-1-yl)-2,3,4,5-tetrahydropyrido[3,2-f][1,4]oxazepine] showed an Emax of 85.4%.
For `CCC(C)N(C)c1ccc2c(n1)OCCNC2` (centres unmarked) [Example 171, N-(sec-butyl)-N-methyl-2,3,4,5-tetrahydropyrido[3,2-f][1,4]oxazepin-8-amine monohydrobromide], the Emax was 99.6%.
Work on `CC(C)N(C)c1ccc2c(n1)OCCNC2` [Example 177, N-isopropyl-N-methyl-2,3,4,5-tetrahydropyrido[3,2-f][1,4]oxazepin-8-amine] yielded an Emax of 91.5%.
With `CC(C)c1ccc2c(n1)OCCNC2` [Example 205, 8-isopropyl-2,3,4,5-tetrahydropyrido[3,2-f][1,4]oxazepine dihydrochloride] the Emax was 93.5%.
In the case of `c1cc2c(nc1C1CC1)OCCNC2` [Example 210, 8-cyclopropyl-2,3,4,5-tetrahydropyrido[3,2-f][1,4]oxazepine dihydrochloride], the Emax is reported as 108%.
`c1cc2c(nc1C1CCC1)OCCNC2` [Example 211, 8-cyclobutyl-2,3,4,5-tetrahydropyrido[3,2-f][1,4]oxazepine dihydrochloride] gave an Emax of 98%.
`c1cc2c(nc1C1CCCC1)OCCNC2` [Example 212, 8-cyclopentyl-2,3,4,5-tetrahydropyrido[3,2-f][1,4]oxazepine dihydrochloride] showed an Emax of 91.9%.

What follows are molecules tested on female spinal cord-transected rats with bilaterally transected hypogastric nerve and pudendal nerve (assay: Reflex urethral closure response induced by increased intravesical pressure, with hypogastric and pudendal nerves bilaterally transected). Settings: 1 mg/kg i.v.; 10 min after administration; intravesical pressure raised to 50 cmH2O; mean ± SEM, n = 5.
Procedure: Female SD rats (body weight 200-310 g) were anesthetized with urethane (Wako Pure Chemical Industries, Ltd.), and the spinal cord was transected at T8-9 level to eliminate the micturition reflex. During the operation, halothane (Takeda Pharmaceutical Company Limited) anesthesia was added when necessary. After abdominal section, bladder neck was ligated with a suture thread, and then the hypogastric nerve and pudendal nerve were bilaterally transected. A catheter (PE-90, Clay Adams) was placed in the bladder, and the other end of the bladder catheter was connected to a pressure transducer and a water reservoir (60 ml syringe) of saline via a three-way cock. A microchip transducer catheter (SPR-524, Millar Instruments Inc.) was inserted toward the bladder from the urethral opening, and adjusted using a scale on the catheter surface so that the transducer part is positioned in the urinary tract at 10.0-15.0 mm from the urethral opening.
The changes in the topical pressure within the urinary tract (hereinafter conveniently indicated as urethral internal pressure) as measured by the microchip transducer was transmitted to a computer via an amplifier (blood pressure amplification unit AP-641G; NIHON KOHDEN) and an analog-to-digital converter (MP-100; biopack; sampled at 500 Hz), and recorded on a hard disc. […] The reaction of the urinary tract induced by an increased intravesical pressure was measured 3 times, and the average of the last 2 measures was taken as the value before drug administration. The evaluation item was reflex urethral closure response, and the recorded values were subjected to smoothing process at 500 points to calculate an average urethral internal pressure per 1 sec, after which the value immediately before increase of the intravesical pressure was subtracted from the maximum value on increase of the intravesical pressure and taken as the urethral closure response. […] The drugs were all dissolved in N,N-dimethylformamide/polyethylene glycol 400 (1:1) and administered intravenously at a dose of 0.5 ml/kg.
In the case of `C[C@H]1CNCCc2ccc(Cl)cc21.Cl` [APD-356], the “urethral closure response (cmH2O) after drug administration” value is reported as 8.6 ± 2.7 cmH2O.
`c1cc2c(nc1N1CCOCC1)OCCNC2` [Example 41, 8-morpholin-4-yl-2,3,4,5-tetrahydropyrido[3,2-f][1,4]oxazepine] was tested, and the “urethral closure response (cmH2O) after drug administration” value was 7.5 ± 1.6 cmH2O.

Same assay, conditions: 3 mg/kg i.v.; 10 min after administration; intravesical pressure raised to 50 cmH2O; mean ± SEM, n = 5
`c1cc2c3c(c1)[C@H]1CCC[C@H]1N3CCNC2` [WAY-163909] was tested, and the “urethral closure response (cmH2O) after drug administration” value was 10.2 ± 1.6 cmH2O.

Same assay, conditions: baseline of the 1 mg/kg i.v. group; intravesical pressure raised to 50 cmH2O; mean ± SEM, n = 5
`C[C@H]1CNCCc2ccc(Cl)cc21.Cl` [APD-356] was tested, and the “urethral closure response (cmH2O) before drug administration” value was 5.3 ± 1.7 cmH2O.
For `c1cc2c(nc1N1CCOCC1)OCCNC2` [Example 41, 8-morpholin-4-yl-2,3,4,5-tetrahydropyrido[3,2-f][1,4]oxazepine], the “urethral closure response (cmH2O) before drug administration” value was 4.6 ± 0.8 cmH2O.

Same assay, conditions: baseline of the 3 mg/kg i.v. group; intravesical pressure raised to 50 cmH2O; mean ± SEM, n = 5
For `c1cc2c3c(c1)[C@H]1CCC[C@H]1N3CCNC2` [WAY-163909], the “urethral closure response (cmH2O) before drug administration” value was 4.4 ± 0.8 cmH2O.

Same assay, conditions: i.v.; female spinal cord-transected rats with hypogastric and pudendal nerves bilaterally transected
In the case of `C[C@H]1CNCCc2ccc(Cl)cc21.Cl` [APD-356], the “action on the urethral closure response induced by the increased intravesical pressure (in words)” value is reported as “enhanced the urethral closure response”.
In the case of `c1cc2c(nc1N1CCOCC1)OCCNC2` [Example 41, 8-morpholin-4-yl-2,3,4,5-tetrahydropyrido[3,2-f][1,4]oxazepine], the “action on the urethral closure response induced by the increased intravesical pressure (in words)” value is reported as “enhanced the urethral closure response”.
In the case of `c1cc2c3c(c1)[C@H]1CCC[C@H]1N3CCNC2` [WAY-163909], the “action on the urethral closure response induced by the increased intravesical pressure (in words)” value is reported as “enhanced the urethral closure response”.
